Test results published in patent US20220402950A1, “SUBSTITUTED BENZIMIDAZOLES AS PAD4 INHIBITORS” (BRISTOL-MYERS SQUIBB COMPANY, priority 2018, published 2022).

target: human PAD4 (hPAD4) (Homo sapiens, UniProt Q9UM07); experiment: RFMS Human PAD4 Functional Assay; assay type: biochemical; settings: hPAD4 RFMS IC50, human PAD4, rapid-fire mass spectrum (RFMS) assay; 5 nM hPAD4, 250 μM BAEE
Procedure, shortened: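 RapidFire ESI-MS quantification, normalised to a modified-citrulline internal standard, after phenyl glyoxal (final 4 mM) derivatisation of the TCA-quenched reaction. The enzyme (10 nM) sat 30 min with compound (up to 50 μM final) before 500 μM BAEE (as added) started a 90 min, 37 °C reaction. Buffer: HEPES pH 7.5, 50 μM calcium, 5 μM TPEN.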

human PAD4 (hPAD4), sequence (Q9UM07 whole entry): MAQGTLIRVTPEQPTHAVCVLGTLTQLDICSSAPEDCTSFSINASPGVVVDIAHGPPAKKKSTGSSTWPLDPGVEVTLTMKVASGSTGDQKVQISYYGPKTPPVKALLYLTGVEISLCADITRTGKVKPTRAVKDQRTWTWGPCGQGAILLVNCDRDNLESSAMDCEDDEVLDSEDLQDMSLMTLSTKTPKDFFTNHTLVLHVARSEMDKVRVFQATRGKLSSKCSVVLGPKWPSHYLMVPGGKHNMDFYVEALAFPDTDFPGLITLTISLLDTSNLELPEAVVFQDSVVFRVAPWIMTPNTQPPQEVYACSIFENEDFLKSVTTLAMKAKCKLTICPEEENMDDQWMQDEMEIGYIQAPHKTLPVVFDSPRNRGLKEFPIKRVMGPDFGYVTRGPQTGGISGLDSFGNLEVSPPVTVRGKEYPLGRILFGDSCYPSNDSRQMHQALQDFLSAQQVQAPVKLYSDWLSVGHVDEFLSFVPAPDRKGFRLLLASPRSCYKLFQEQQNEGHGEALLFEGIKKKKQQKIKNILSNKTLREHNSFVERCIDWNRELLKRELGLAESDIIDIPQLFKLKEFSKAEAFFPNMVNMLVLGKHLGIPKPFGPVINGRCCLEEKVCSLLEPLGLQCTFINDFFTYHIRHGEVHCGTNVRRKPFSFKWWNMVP

Row | SMILES | IC50 [nM]
1 | COc1cc(C(=O)N2C[C@H]3CC[C@@H]2[C@@H]3N)cc2nc(-c3cc4cccc(Nc5cnn(C)c5)c4n3CC3CC3)n(C)c12 [Example 171, ((1R,4R,7R)-7-amino-2-azabicyclo[2.2.1]heptan-2-yl)(2-(1-(cyclopropylmethyl)-7-((1-methyl-1H-pyrazol-4-yl)amino)-1H-indol-2-yl)-7-methoxy-1-methyl-1H-benzo[d]imidazol-5-yl)methanone] | 96
2 | COc1cc(C(=O)N2C[C@H]3CC[C@@H]2[C@@H]3N)cc2nc(-c3cc4cccc(C5CN(C(=O)Cc6nnn[nH]6)C5)c4n3CC3CC3)n(C)c12 [Example 81, 1-[3-(2-{5-[(1R,4R,7R)-7-amino-2-azabicyclo[2.2.1]heptane-2-carbonyl]-7-methoxy-1-methyl-1H-1,3-benzodiazol-2-yl}-1-(cyclopropylmethyl)-1H-indol-7-yl)azetidin-1-yl]-2-(1H-1,2,3,4-tetrazol-5-yl)ethan-1-one] | 16
3 | COc1cc(C(=O)N2CC3CCC2[C@@H]3N)cc2nc(-c3cc4cccc(-c5ccco5)c4n3CC3CC3)n(C)c12 (stereo partly drawn) [Example 130, ((7R)-7-amino-2-azabicyclo[2.2.1]heptan-2-yl)(2-(1-(cyclopropylmethyl)-7-(furan-2-yl)-1H-indol-2-yl)-7-methoxy-1-methyl-1H-benzo[d]imidazol-5-yl)methanone] | 178
4 | COc1cc(C(=O)N2C[C@H]3CC[C@@H]2[C@@H]3N)cc2nc(-c3cc4cccc(C5CCCC5)c4n3CC3CC3)n(C)c12 [Example 6, (1R,4R,7R)-2-{2-[7-cyclopentyl-1-(cyclopropylmethyl)-1H-indol-2-yl]-7-methoxy-1-methyl-1H-1,3-benzodiazole-5-carbonyl}-2-azabicyclo[2.2.1]heptan-7-amine] | 190
5 | COc1cc(C(=O)N2C[C@H]3CC[C@@H]2[C@@H]3N)cc2nc(-c3cc4cccc(C5CCN(C(=O)CC#N)CC5)c4n3CC3CC3)n(C)c12 [Example 231, 3-(4-(2-(5-((1R,4R,7R)-7-amino-2-azabicyclo[2.2.1]heptane-2-carbonyl)-7-methoxy-1-methyl-1H-benzo[d]imidazol-2-yl)-1-(cyclopropylmethyl)-1H-indol-7-yl)piperidin-1-yl)-3-oxopropanenitrile] | 66
6 | COc1cc(C(=O)N2C[C@H]3CC[C@@H]2[C@@H]3N)cc2nc(-c3cc4cccc(C5CN(C(=O)Nc6ccccc6)C5)c4n3CC3CC3)n(C)c12 [Example 228, 3-(2-(5-((1R,4R,7R)-7-amino-2-azabicyclo[2.2.1]heptane-2-carbonyl)-7-methoxy-1-methyl-1H-benzo[d]imidazol-2-yl)-1-(cyclopropylmethyl)-1H-indol-7-yl)-N-phenylazetidine-1-carboxamide] | 41
7 | COc1cc(C(=O)N2CC3CCC2[C@@H]3N)cc2nc(-c3cc4cccc(-c5cccc(CO)c5)c4n3CC3CC3)n(C)c12 (stereo partly drawn) [Example 136, ((7R)-7-amino-2-azabicyclo[2.2.1]heptan-2-yl)(2-(1-(cyclopropylmethyl)-7-(3-(hydroxymethyl)phenyl)-1H-indol-2-yl)-7-methoxy-1-methyl-1H-benzo[d]imidazol-5-yl)methanone] | 77
8 | COc1cc(C(=O)N2C[C@H](N)C[C@@H](F)C2)cc2nc(-c3cc4cccc(C5CC(C(=O)N(C)C)C5)c4n3CC3CC3)n(C)c12 (single isomer, unassigned) [Example 117] | 117
9 | COc1cc(C(=O)N2C[C@H]3CC[C@@H]2[C@@H]3N)cc2nc(-c3cc4cccc(C5CN(C(C)=O)C5)c4n3C)n(Cc3cnn(C)c3)c12 [Example 214, 1-(3-(2-(5-((1R,4R,7R)-7-amino-2-azabicyclo[2.2.1]heptane-2-carbonyl)-7-methoxy-1-((1-methyl-1H-pyrazol-4-yl)methyl)-1H-benzo[d]imidazol-2-yl)-1-methyl-1H-indol-7-yl)azetidin-1-yl)ethan-1-one] | 155
10 | COc1cc(C(=O)N2CC3CCC2C3N)cc2nc(-c3cc4cccc(NCC5CNC5)c4n3CC3CC3)n(C)c12 (centres unmarked) [Example 159, (7-amino-2-azabicyclo[2.2.1]heptan-2-yl)(2-(7-((azetidin-3-ylmethyl)amino)-1-(cyclopropylmethyl)-1H-indol-2-yl)-7-methoxy-1-methyl-1H-benzo[d]imidazol-5-yl)methanone] | 150
11 | COc1cc(-c2cccc3cc(-c4nc5cc(C(=O)N6C[C@H]7CC[C@@H]6[C@@H]7N)cc(OC)c5n4C)n(CC4CC4)c23)ccc1O [Example 91, 4-(2-{5-[(1R,4R,7R)-7-amino-2-azabicyclo[2.2.1]heptane-2-carbonyl]-7-methoxy-1-methyl-1H-1,3-benzodiazol-2-yl}-1-(cyclopropylmethyl)-1H-indol-7-yl)-2-methoxyphenol] | 42
12 | COc1cc(C(=O)N2C[C@H]3CC[C@@H]2[C@@H]3N)cc2nc(-c3cc4cccc(-c5ccc6c(=O)[nH]ccc6c5)c4n3CC3CC3)n(C)c12 [Example 102, 6-(2-{5-[(1R,4R,7R)-7-amino-2-azabicyclo[2.2.1]heptane-2-carbonyl]-7-methoxy-1-methyl-1H-1,3-benzodiazol-2-yl}-1-(cyclopropylmethyl)-1H-indol-7-yl)-1,2-dihydroisoquinolin-1-one] | 131
13 | COc1cc(C(=O)N2C[C@@H]3CC[C@@H]2C3N)cc2nc(-c3cc4cccc(-c5ccccc5C#N)c4n3CC3CC3)n(C)c12 (stereo partly drawn) [Example 143, 2-(2-(5-((1R,4S)-7-amino-2-azabicyclo[2.2.1]heptane-2-carbonyl)-7-methoxy-1-methyl-1H-benzo[d]imidazol-2-yl)-1-(cyclopropylmethyl)-1H-indol-7-yl)benzonitrile] | 181
14 | COc1cc(C(=O)N2C[C@H]3CC[C@@H]2[C@@H]3N)cc2nc(-c3cc4cccc(C5CCCOC5)c4n3CC3CC3)n(C)c12 (stereo partly drawn) [Example 34, (1R,4R,7R)-2-{2-[1-(cyclopropylmethyl)-7-(oxan-3-yl)-1H-indol-2-yl]-7-methoxy-1-methyl-1H-1,3-benzodiazole-5-carbonyl}-2-azabicyclo[2.2.1]heptan-7-amine] | 94
15 | COc1cc(C(=O)N2C[C@H](N)C[C@@H](F)C2)cc2nc(-c3cc4cccc(-c5ccc6c(c5)CNC6=O)c4n3CC3CC3)n(C)c12 [Example 209, 5-(2-(5-((3R,5R)-3-amino-5-fluoropiperidine-1-carbonyl)-7-methoxy-1-methyl-1H-benzo[d]imidazol-2-yl)-1-(cyclopropylmethyl)-1H-indol-7-yl)isoindolin-1-one] | 69
16 | COc1cc(C(=O)N2C[C@H]3CC[C@@H]2[C@@H]3N)cc2nc(-c3cc4cccc(C5CN(C(=O)Cc6ccncc6)C5)c4n3CC3CC3)n(C)c12 [Example 73, 1-[3-(2-{5-[(1R,4R,7R)-7-amino-2-azabicyclo[2.2.1]heptane-2-carbonyl]-7-methoxy-1-methyl-1H-1,3-benzodiazol-2-yl}-1-(cyclopropylmethyl)-1H-indol-7-yl)azetidin-1-yl]-2-(pyridin-4-yl)ethan-1-one] | 5
17 | COc1cc(C(=O)N2C[C@H]3CC[C@@H]2[C@@H]3N)cc2nc(-c3cc4cccc(C5CC(C(=O)N6CCCC6)C5)c4n3CC3CC3)n(C)c12 (single isomer, unassigned) [Example 49] | 34
18 | COc1cc(C(=O)N2C[C@H]3CC[C@@H]2[C@@H]3N)cc2nc(-c3cc4cccc(-c5cccc6c5CNC6=O)c4n3CC3CC3)n(C)c12 [Example 96, 4-(2-{5-[(1R,4R,7R)-7-amino-2-azabicyclo[2.2.1]heptane-2-carbonyl]-7-methoxy-1-methyl-1H-1,3-benzodiazol-2-yl}-1-(cyclopropylmethyl)-1H-indol-7-yl)-2,3-dihydro-1H-isoindol-1-one] | 144
19 | COc1cc(C(=O)N2C[C@H]3CC[C@@H]2[C@@H]3N)cc2nc(-c3cc4cccc(C[C@H]5CC[C@H](N)CC5)c4n3CC3CC3)n(C)c12 [Example 14, ((1R,4R,7R)-7-amino-2-azabicyclo[2.2.1]heptan-2-yl)(2-(7-(((trans)-4-aminocyclohexyl)methyl)-1-(cyclopropylmethyl)-1H-indol-2-yl)-7-methoxy-1-methyl-1H-benzo[d]imidazol-5-yl)methanone] | 38
20 | COC(=O)N1CC(c2cccc3cc(-c4nc5cc(C(=O)N6C[C@H]7CC[C@@H]6[C@@H]7N)cc(OC)c5n4Cc4cnn(C)c4)n(C)c23)C1 [Example 216, methyl 3-(2-(5-((1R,4R,7R)-7-amino-2-azabicyclo[2.2.1]heptane-2-carbonyl)-7-methoxy-1-((1-methyl-1H-pyrazol-4-yl)methyl)-1H-benzo[d]imidazol-2-yl)-1-methyl-1H-indol-7-yl)azetidine-1-carboxylate] | 101
21 | COC(=O)N1CC=C(c2cccc3cc(-c4nc5cc(C(=O)N6C[C@H]7CC[C@@H]6[C@@H]7N)cc(OC)c5n4C)n(CC4CC4)c23)CC1 [Example 221, methyl 4-(2-(5-((1R,4R,7R)-7-amino-2-azabicyclo[2.2.1]heptane-2-carbonyl)-7-methoxy-1-methyl-1H-benzo[d]imidazol-2-yl)-1-(cyclopropylmethyl)-1H-indol-7-yl)-3,6-dihydropyridine-1(2H)-carboxylate] | 77
22 | COc1cc(C(=O)N2C[C@H]3CC[C@@H]2[C@@H]3N)cc2nc(-c3cc4cccc(-c5ccc6[nH]c(=O)ccc6c5)c4n3CC3CC3)n(C)c12 [Example 100, 6-(2-{5-[(1R,4R,7R)-7-amino-2-azabicyclo[2.2.1]heptane-2-carbonyl]-7-methoxy-1-methyl-1H-1,3-benzodiazol-2-yl}-1-(cyclopropylmethyl)-1H-indol-7-yl)-1,2-dihydroquinolin-2-one] | 58

same assay, conditions: human PAD4, rapid-fire mass spectrum (RFMS) assay; 5 nM hPAD4, 250 μM BAEE; read-out: hPAD4 RFMS IC50

Row | SMILES | IC50 [nM]
23 | COc1cc(C(=O)N2C[C@H]3CC[C@@H]2[C@@H]3N)cc2nc(-c3cc4cccc(CCCC(=O)O)c4n3CC3CC3)n(C)c12 [Example 60, 4-(2-{5-[(1R,4R,7R)-7-amino-2-azabicyclo[2.2.1]heptane-2-carbonyl]-7-methoxy-1-methyl-1H-1,3-benzodiazol-2-yl}-1-(cyclopropylmethyl)-1H-indol-7-yl)butanoic Acid] | 108
